Like-named read-outs stand apart in the source and are kept apart here.
Legend:
C. albicans = assay: MIC of CFW in the presence of compounds, checkerboard assay; assay type: cell-based, Candida albicans
Procedure: (§1) Fresh cell cultures of WT S. cerevisiae and C. albicans ATCC10231 (OD600 = 0.8) were diluted to 10^4 CFU/mL in YPD medium. The in vitro synergistic and antagonistic effects of compounds were determined using checkerboard assay. MIC endpoints were defined as the lowest concentration of drugs, causing 80% decrease in viability compared to the drug-free control (MIC80). The calculation and interpretation of the fractional inhibitory concentration index (FICI) were carried out by referring to the document standards. FICI = (MIC of drug A in combination) / (MIC of drug A alone) + (MIC of drug B in combination) / (MIC of drug B alone). FIC ≤0.5 was considered as a synergistic effect, and >2 was considered as antagonism.

[1] = test system: WT S. cerevisiae strain BY4741; assay: MIC in compound library screening assay, WT yeast; assay type: cell-based; settings: for MIC: Saccharomyces cerevisiae
Procedure: (§2) The compound library is a combination of synthetic compounds from Enamine (Kyiv, Ukraine) and Life Chemicals Inc. (Burlington, ON, Canada) and natural products from the Institute of Medicinal Biotechnology. We used WT, chs3∆, and fks1∆ yeast strains to screen new antifungal agents. The screening assays were performed in 96-well plates in a final volume of 200 μL. Fresh yeast cells (OD600 = 0.8) were diluted to 10^5 CFU/mL in YPD medium. We added 198 μL of diluted culture and 2 μL of compounds into each well, and the final concentration of compounds was 100 μg/mL with 1% DMSO. The yeast cells were incubated at 30 °C for 24 hours to assess the growth. For the compounds that inhibited the growth of all three yeast strains, they were serially diluted to determine the minimal inhibit concentration (MIC) with the same method. MIC endpoints were defined as the lowest concentration of drugs that cause a 90% decrease in growth compared to the drug-free control (MIC90).

[2] = test system: chs3∆ (chs3::KanMX in BY4741); assay: MIC in compound library screening assay, chs3∆ yeast; assay type: cell-based, S. cerevisiae; settings: for MIC: Saccharomyces cerevisiae, 24 h
Procedure: as §2

[3] = test system: fks1∆ (fks1::KanMX in BY4741); assay: MIC in compound library screening assay, fks1∆ yeast; assay type: cell-based, S. cerevisiae; settings: for MIC: Saccharomyces cerevisiae, 24 h, read-out: MIC, fks1∆
Procedure: as §2

WT S. cerevisiae = assay: Checkerboard assay, synergy with caspofungin; assay type: cell-based; settings: for MIC: Saccharomyces cerevisiae, read-out: MIC Alone
Procedure: as §1

C. albicans ATCC10231 = assay: Checkerboard assay, synergy with caspofungin; assay type: cell-based; settings: Candida albicans
Procedure: as §1

budding yeast = assay: MIC of CFW in the presence of compounds, checkerboard assay; assay type: cell-based, S. cerevisiae; settings: budding yeast, CFW alone
Procedure: as §1

Row | MIC of CFW (C. albicans; C. albicans, absence of chitin synthesis inhibitor) | MIC of CFW (budding yeast) | Structure (SMILES) | MIC (C. albicans; Candida albicans, read-out: MIC of CFW in the presence of nikkomycin Z) | MIC ([1]; 24 h, read-out: MIC, WT, WT BY4741, YPD, 30 °C, 24 hours, MIC90) | MIC, WT ([1]; WT BY4741, YPD, 30 °C, 24 hours, MIC90) | MIC ([2]; read-out: MIC, chs3∆, chs3∆ mutant, YPD, 30 °C, 24 hours, MIC90) | MIC, chs3∆ ([2]; chs3∆ mutant, YPD, 30 °C, 24 hours, MIC90) | MIC [3] | MIC, fks1∆ ([3]; fks1∆ mutant, YPD, 30 °C, 24 hours, MIC90) | MIC of Caspofungin Combination (WT S. cerevisiae; S. cerevisiae, MIC of caspofungin in combination with the named compound, MIC80) | MIC Combination (WT S. cerevisiae; S. cerevisiae, MIC of the compound in combination with caspofungin, MIC80) | FICI (WT S. cerevisiae; S. cerevisiae, fractional inhibitory concentration index with caspofungin, ≤0.5 synergistic) | MIC (WT S. cerevisiae) | MIC (C. albicans ATCC10231; ATCC10231, read-out: MIC Alone) | MIC of Caspofungin Combination (C. albicans ATCC10231; MIC of caspofungin in combination with the named compound, MIC80) | MIC Combination (C. albicans ATCC10231; MIC of the compound in combination with caspofungin, MIC80) | MIC ([1]; WT BY4741, YPD, 30 °C, 24 hours, MIC90, read-out: MIC, WT) | MIC ([2]; read-out: MIC, chs3∆) | MIC (WT S. cerevisiae; S. cerevisiae, compound alone, MIC80) | MIC (C. albicans ATCC10231; ATCC10231, compound alone, MIC80, read-out: MIC Alone)
1 | – | – | C[C@@H]([C@H](N)C(=O)N[C@H](C(=O)O)[C@H]1O[C@@H](n2ccc(=O)[nH]c2=O)[C@H](O)[C@@H]1O)[C@H](O)c1ccc(O)cn1 [Nikkomycin, nikkomycin Z, reference compound] | 100 µg/mL | ≥ 200 µg/mL | > 200 µg/mL | ≥ 200 µg/mL | > 200 µg/mL | 25 µg/mL | 25 µg/mL | 0.0075 µg/mL | 12.5 µg/mL | <0.5 | > 100 µg/mL | 12.5 µg/mL | 0.00625 µg/mL | 3.125 µg/mL | – | – | – | –
2 | – | – | CC[C@H](C)C[C@H](C)CCCCCCCCC(=O)N[C@H]1C[C@@H](O)[C@@H](NCCN)NC(=O)[C@@H]2[C@@H](O)CCN2C(=O)[C@H]([C@H](O)CCN)NC(=O)[C@H]([C@H](O)[C@@H](O)c2ccc(O)cc2)NC(=O)[C@@H]2C[C@@H](O)CN2C(=O)[C@H]([C@@H](C)O)NC1=O [Caspofungin, caspofungin] | – | – | – | – | – | 0.015 µg/mL | – | – | – | – | – | – | – | – | 0.03 µg/mL | 0.00375 µg/mL | 0.03 µg/mL | 0.025 µg/mL
3 | 12.5 µg/mL | 6.25 µg/mL | O=S(=O)([O-])c1cc(Nc2nc(Nc3ccccc3)nc(N(CCO)CCO)n2)ccc1/C=C/c1ccc(Nc2nc(Nc3ccccc3)nc(N(CCO)CCO)n2)cc1S(=O)(=O)[O-].[Na+].[Na+] [CFW, Calcofluor White M2R, reference compound] | – | – | – | – | – | – | – | – | – | – | – | – | – | – | – | – | – | –
